Assay results as given in ChEMBL document CHEMBL1806424, “The novel 3,4-dihydropyrimidin-2(1H)-one urea derivatives of N-aryl urea: synthesis, anti-inflammatory, antibacterial and antifungal activity evaluation” (2011).
Converted amounts (≈) assume the structure as drawn. The source made the active and inactive calls. The rule behind the calls is not given here.

How the values were obtained:
[1] = system: THP-1; test: Antiinflammatory activity in human THP1 cells assessed as inhibition of LPS-induced TNFalpha production at 10 uM treated 30 mins before LPS challenge measured after 24 hrs by ELISA; assay type: functional
[2] = system: THP-1; test: Antiinflammatory activity in human THP1 cells assessed as inhibition of LPS-induced IL6 production at 10 uM treated 30 mins before LPS challenge measured after 24 hrs by ELISA; assay type: functional
[3] = system: Staphylococcus aureus; test: Antibacterial activity against Staphylococcus aureus; assay type: functional
[4] = system: Bacillus subtilis; test: Antibacterial activity against Bacillus subtilis; assay type: functional
[5] = system: Escherichia coli; test: Antibacterial activity against Escherichia coli; assay type: functional
[6] = system: Salmonella typhimurium; test: Antibacterial activity against Salmonella Typhimurium; assay type: functional, Salmonella enterica subsp. enterica serovar Typhimurium; details: Salmonella enterica
[7] = system: Candida albicans; test: Antifungal activity against Candida albicans; assay type: functional
[8] = system: Aspergillus niger; test: Antifungal activity against Aspergillus niger; assay type: functional
[9] = system: Fusarium solani; test: Antifungal activity against Fusarium solani; assay type: functional
[10] = system: Aspergillus flavus; test: Antifungal activity against Aspergillus flavus; assay type: functional
[11] = system: THP-1; test: Antiinflammatory activity in human THP1 cells assessed as inhibition of LPS-induced TNFalpha production at 1 uM treated 30 mins before LPS challenge measured after 24 hrs by ELISA; assay type: functional
[12] = system: THP-1; test: Antiinflammatory activity in human THP1 cells assessed as inhibition of LPS-induced IL6 production at 1 uM treated 30 mins before LPS challenge measured after 24 hrs by ELISA; assay type: functional
[13] = system: Escherichia coli; test: Antibacterial activity against Escherichia coli at 200 ug/ml; assay type: functional, organism-based
[14] = system: Salmonella typhimurium; test: Antibacterial activity against Salmonella Typhimurium at 200 ug/ml; assay type: functional, organism-based; details: Salmonella enterica subsp. enterica serovar Typhimurium
[15] = system: Aspergillus niger; test: Antifungal activity against Aspergillus niger at 200 ug/ml; assay type: functional, organism-based
[16] = system: Fusarium solani; test: Antifungal activity against Fusarium solani at 200 ug/ml; assay type: functional, organism-based
[17] = system: Aspergillus flavus; test: Antifungal activity against Aspergillus flavus at 200 ug/ml; assay type: functional, organism-based
[18] = system: Staphylococcus aureus; test: Ratio of ciprofloxacin MIC to compound MIC for Staphylococcus aureus; assay type: functional
[19] = system: Bacillus subtilis; test: Ratio of ciprofloxacin MIC to compound MIC for Bacillus subtilis; assay type: functional
[20] = system: Escherichia coli; test: Ratio of ciprofloxacin MIC to compound MIC for Escherichia coli; assay type: functional
[21] = system: Salmonella typhimurium; test: Ratio of ciprofloxacin MIC to compound MIC for Salmonella Typhimurium; assay type: functional, Salmonella enterica subsp. enterica serovar Typhimurium
[22] = system: Candida albicans; test: Ratio of miconazole MIC to compound MIC for Candida albicans; assay type: functional
[23] = system: Aspergillus niger; test: Ratio of miconazole MIC to compound MIC for Aspergillus niger; assay type: functional
[24] = system: Fusarium solani; test: Ratio of miconazole MIC to compound MIC for Fusarium solani; assay type: functional
[25] = system: Aspergillus flavus; test: Ratio of miconazole MIC to compound MIC for Aspergillus flavus; assay type: functional
[26] = system: Staphylococcus aureus; test: Antibacterial activity against Staphylococcus aureus at 200 ug/ml; assay type: functional, organism-based
[27] = system: Bacillus subtilis; test: Antibacterial activity against Bacillus subtilis at 200 ug/ml; assay type: functional, organism-based
[28] = system: Candida albicans; test: Antifungal activity against Candida albicans at 200 ug/ml; assay type: functional, organism-based

SMILES	inhibition at 10 µM [1] [%]	inhibition at 10 µM [2] [%]	MIC [3] [µg/mL]	MIC [4] [µg/mL]	MIC [5] [µg/mL]	MIC [6] [µg/mL]	MIC [7] [µg/mL]	MIC [8] [µg/mL]	MIC [9] [µg/mL]	MIC [10] [µg/mL]	further results
CCOC(=O)C1=C(C)NC(=S)NC1c1ccc(NC(=O)Nc2c(F)cccc2Cl)cc1 (stereo not given)	0	36	65 (≈ 140 µM)	55 (≈ 119 µM)	85 (≈ 184 µM)	85 (≈ 184 µM)	40 (≈ 86.4 µM)	60 (≈ 130 µM)	80 (≈ 173 µM)	90 (≈ 194 µM)	–
CCOC(=O)C1=C(C)NC(=S)NC1c1ccc([N+](=O)[O-])cc1 (stereo not given)	0	8	35 (≈ 109 µM)	45 (≈ 140 µM)	30 (≈ 93.4 µM)	50 (≈ 156 µM)	30 (≈ 93.4 µM)	50 (≈ 156 µM)	60 (≈ 187 µM)	60 (≈ 187 µM)	–
C[C@@H]1C[C@H]2[C@@H]3CCC4=CC(=O)C=C[C@]4(C)[C@@]3(F)[C@@H](O)C[C@]2(C)[C@@]1(O)C(=O)CO [DEXAMETHASONE]	–	–	–	–	–	–	–	–	–	–	inhibition at 1 µM [11]: 71%; inhibition at 1 µM [12]: 84%
CCOC(=O)C1=C(C)NC(=S)NC1c1ccc(NC(=O)Nc2cc(C(F)(F)F)ccc2Cl)cc1 (stereo not given)	68	92	55 (≈ 107 µM)	85 (≈ 166 µM)	80 (≈ 156 µM)	90 (≈ 175 µM)	60 (≈ 117 µM)	80 (≈ 156 µM)	85 (≈ 166 µM)	90 (≈ 175 µM)	–
CCOC(=O)C1=C(C)NC(=S)NC1c1ccc(NC(=O)Nc2ccc(C)c(C)c2)cc1 (stereo not given)	0	2	90 (≈ 205 µM)	95 (≈ 217 µM)	–	–	95 (≈ 217 µM)	–	–	–	Activity [13]: inactive; Activity [14]: inactive; Activity [15]: inactive; Activity [16]: inactive; Activity [17]: inactive
CCOC(=O)C1=C(C)NC(=S)NC1c1ccc(NC(=O)Nc2ccc(F)c(C)c2)cc1 (stereo not given)	0	16	65 (≈ 147 µM)	90 (≈ 203 µM)	–	90 (≈ 203 µM)	80 (≈ 181 µM)	95 (≈ 215 µM)	–	95 (≈ 215 µM)	Activity [13]: inactive; Activity [16]: inactive
CCOC(=O)C1=C(C)NC(=S)NC1c1ccc(NC(=O)Nc2ccc(C(F)(F)F)cc2Cl)cc1 (stereo not given)	16	73	35 (≈ 68.2 µM)	35 (≈ 68.2 µM)	25 (≈ 48.7 µM)	55 (≈ 107 µM)	35 (≈ 68.2 µM)	40 (≈ 78 µM)	60 (≈ 117 µM)	35 (≈ 68.2 µM)	–
CCOC(=O)C1=C(C)NC(=S)NC1c1ccc(NC(=O)Nc2ccccc2F)cc1 (stereo not given)	0	40	10 (≈ 23.3 µM)	15 (≈ 35 µM)	10 (≈ 23.3 µM)	40 (≈ 93.4 µM)	10 (≈ 23.3 µM)	10 (≈ 23.3 µM)	15 (≈ 35 µM)	10 (≈ 23.3 µM)	Ratio [18]: 1.5; Ratio [19]: 1.5; Ratio [20]: 1.5; Ratio [21]: 1.5; Ratio [22]: 2.5; Ratio [23]: 2.5; Ratio [24]: 2.5; Ratio [25]: 2.5
CCCCc1ccc(NC(=O)Nc2ccc(C3NC(=S)NC(C)=C3C(=O)OCC)cc2)cc1 (stereo not given)	0	10	–	–	95 (≈ 204 µM)	–	–	–	–	–	Activity [26]: inactive; Activity [27]: inactive; Activity [14]: inactive; Activity [28]: inactive; Activity [15]: inactive; Activity [16]: inactive; Activity [17]: inactive
CCOC(=O)C1=C(C)NC(=S)NC1c1ccc(NC(=O)Nc2ccccc2OC(F)(F)F)cc1 (stereo not given)	20	60	30 (≈ 60.7 µM)	30 (≈ 60.7 µM)	25 (≈ 50.6 µM)	20 (≈ 40.4 µM)	15 (≈ 30.3 µM)	20 (≈ 40.4 µM)	15 (≈ 30.3 µM)	15 (≈ 30.3 µM)	–
CCOC(=O)C1=C(C)NC(=S)NC1c1ccc(NC(=O)Nc2ccc(F)c(Cl)c2)cc1 (stereo not given)	3	40	60 (≈ 130 µM)	–	85 (≈ 184 µM)	–	80 (≈ 173 µM)	–	95 (≈ 205 µM)	–	Activity [27]: inactive; Activity [14]: inactive; Activity [15]: inactive; Activity [17]: inactive
CCOC(=O)C1=C(C)NC(=S)NC1c1ccc(NC(=O)Nc2cc(F)cc(F)c2)cc1 (stereo not given)	62	86	90 (≈ 202 µM)	–	–	–	95 (≈ 213 µM)	–	–	–	Activity [27]: inactive; Activity [13]: inactive; Activity [14]: inactive; Activity [15]: inactive; Activity [16]: inactive; Activity [17]: inactive
CCOC(=O)C1=C(C)NC(=S)NC1c1ccc(NC(=O)Nc2ccccc2C(F)(F)F)cc1 (stereo not given)	10	27	25 (≈ 52.2 µM)	25 (≈ 52.2 µM)	15 (≈ 31.3 µM)	30 (≈ 62.7 µM)	25 (≈ 52.2 µM)	40 (≈ 83.6 µM)	30 (≈ 62.7 µM)	30 (≈ 62.7 µM)	–
Clc1ccc(COC(Cn2ccnc2)c2ccc(Cl)cc2Cl)c(Cl)c1 (stereo not given) [MICONAZOLE]	–	–	–	–	–	–	25 (≈ 60.1 µM)	20 (≈ 48.1 µM)	15 (≈ 36 µM)	20 (≈ 48.1 µM)	–
CCOC(=O)C1=C(C)NC(=S)NC1c1ccc(NC(=O)Nc2ccccc2Oc2ccccc2)cc1 (stereo not given)	0	36	40 (≈ 79.6 µM)	55 (≈ 109 µM)	35 (≈ 69.6 µM)	40 (≈ 79.6 µM)	40 (≈ 79.6 µM)	60 (≈ 119 µM)	30 (≈ 59.7 µM)	30 (≈ 59.7 µM)	–
CCOC(=O)C1=C(C)NC(=S)NC1c1ccc(NC(=O)Nc2c(C)cccc2Cl)cc1 (stereo not given)	2	11	40 (≈ 87.2 µM)	65 (≈ 142 µM)	55 (≈ 120 µM)	80 (≈ 174 µM)	40 (≈ 87.2 µM)	55 (≈ 120 µM)	40 (≈ 87.2 µM)	40 (≈ 87.2 µM)	–
CCOC(=O)C1=C(C)NC(=S)NC1c1ccc(NC(=O)Nc2c(F)cccc2C(F)(F)F)cc1 (stereo not given)	0	27	55 (≈ 111 µM)	40 (≈ 80.6 µM)	40 (≈ 80.6 µM)	60 (≈ 121 µM)	55 (≈ 111 µM)	30 (≈ 60.4 µM)	60 (≈ 121 µM)	60 (≈ 121 µM)	–
CCOC(=O)C1=C(C)NC(=S)NC1c1ccc(NC(=O)Nc2cccc(C(F)(F)F)c2)cc1 (stereo not given)	0	11	40 (≈ 83.6 µM)	55 (≈ 115 µM)	20 (≈ 41.8 µM)	40 (≈ 83.6 µM)	25 (≈ 52.2 µM)	20 (≈ 41.8 µM)	15 (≈ 31.3 µM)	15 (≈ 31.3 µM)	–
CCOC(=O)C1=C(C)NC(=S)NC1c1ccc(NC(=O)Nc2ccc(C(F)(F)F)cc2)cc1 (stereo not given)	3	55	20 (≈ 41.8 µM)	25 (≈ 52.2 µM)	10 (≈ 20.9 µM)	30 (≈ 62.7 µM)	15 (≈ 31.3 µM)	15 (≈ 31.3 µM)	10 (≈ 20.9 µM)	25 (≈ 52.2 µM)	–
O=C(O)c1cn(C2CC2)c2cc(N3CCNCC3)c(F)cc2c1=O [CIPROFLOXACIN]	–	–	–	25 (≈ 75.4 µM)	15 (≈ 45.3 µM)	25 (≈ 75.4 µM)	–	–	–	–	–
CCOC(=O)C1=C(C)NC(=S)NC1c1ccc(NC(=O)Nc2ccc(OC)cc2)cc1 (stereo not given)	0	42	15 (≈ 34.1 µM)	20 (≈ 45.4 µM)	15 (≈ 34.1 µM)	45 (≈ 102 µM)	10 (≈ 22.7 µM)	25 (≈ 56.8 µM)	30 (≈ 68.1 µM)	30 (≈ 68.1 µM)	–
CCOC(=O)C1=C(C)NC(=S)NC1c1ccc(NC(=O)Nc2ccccc2Cl)cc1 (stereo not given)	0	43	10 (≈ 22.5 µM)	20 (≈ 44.9 µM)	10 (≈ 22.5 µM)	40 (≈ 89.9 µM)	10 (≈ 22.5 µM)	15 (≈ 33.7 µM)	15 (≈ 33.7 µM)	30 (≈ 67.4 µM)	Ratio [18]: 1.5; Ratio [19]: 1.5; Ratio [20]: 1.5; Ratio [21]: 1.5; Ratio [22]: 2.5; Ratio [23]: 2.5; Ratio [24]: 2.5; Ratio [25]: 2.5
CCOC(=O)C1=C(C)NC(=S)NC1c1ccc(N)cc1 (stereo not given)	0	3	40 (≈ 137 µM)	55 (≈ 189 µM)	40 (≈ 137 µM)	60 (≈ 206 µM)	55 (≈ 189 µM)	40 (≈ 137 µM)	45 (≈ 154 µM)	60 (≈ 206 µM)	–
CCOC(=O)C1=C(C)NC(=S)NC1c1ccc(NC(=O)Nc2c(Cl)cccc2C(F)(F)F)cc1 (stereo not given)	0	39	40 (≈ 78 µM)	85 (≈ 166 µM)	60 (≈ 117 µM)	90 (≈ 175 µM)	60 (≈ 117 µM)	65 (≈ 127 µM)	80 (≈ 156 µM)	55 (≈ 107 µM)	–
CCOC(=O)C1=C(C)NC(=S)NC1c1ccc(NC(=O)Nc2ccc(C(C)C)cc2)cc1 (stereo not given)	30	65	85 (≈ 188 µM)	85 (≈ 188 µM)	55 (≈ 122 µM)	95 (≈ 210 µM)	90 (≈ 199 µM)	90 (≈ 199 µM)	80 (≈ 177 µM)	95 (≈ 210 µM)	–
CCOC(=O)C1=C(C)NC(=S)NC1c1ccc(NC(=O)Nc2c(C)cccc2F)cc1 (stereo not given)	0	6	60 (≈ 136 µM)	65 (≈ 147 µM)	30 (≈ 67.8 µM)	30 (≈ 67.8 µM)	50 (≈ 113 µM)	35 (≈ 79.1 µM)	40 (≈ 90.4 µM)	40 (≈ 90.4 µM)	–
